Holding throughout (format): functional
The subject of experiment [1] is Nephotettix cincticeps. As to the kind of experiment: Insecticidal activity against Nephotettix cincticeps (green rice leafhopper) assessed as lethality at >1000 ppm.
For experiment [2], the system named is Laodelphax striatellus. The experiment is described as follows: Insecticidal activity against Laodelphax striatella (small brown planthopper) assessed as lethality at >1000 ppm.
The test system of experiment [3] is Nephotettix cincticeps. The experiment is described as follows: Insecticidal activity against Nephotettix cincticeps (green rice leafhopper) assessed as lethality at 100 to 1000 ppm.
The test system of experiment [4] is Laodelphax striatellus. The experiment is described as follows: Insecticidal activity against Laodelphax striatella (small brown planthopper) assessed as lethality at 100 to 1000 ppm.
Experiment [5] deals with Nephotettix cincticeps. The experiment is described as follows: Insecticidal activity against Nephotettix cincticeps (green rice leafhopper) assessed as lethality at 0.1 to 1 ppm.
Experiment [6] has as its system Laodelphax striatellus. As to the kind of experiment: Insecticidal activity against Laodelphax striatella (small brown planthopper) assessed as lethality at 0.1 to 1 ppm.
Experiment [7] has as its system Nephotettix cincticeps. As to the kind of experiment: Insecticidal activity against Nephotettix cincticeps (green rice leafhopper) assessed as lethality at 10 to 100 ppm.
The test system of experiment [8] is Laodelphax striatellus. As to the kind of experiment: Insecticidal activity against Laodelphax striatella (small brown planthopper) assessed as lethality at 10 to 100 ppm.
Experiment [9] deals with Nephotettix cincticeps. As to the kind of experiment: Insecticidal activity against Nephotettix cincticeps (green rice leafhopper) assessed as lethality at 1 to 10 ppm.
Experiment [10] concerns Laodelphax striatellus. The experiment is described as follows: Insecticidal activity against Laodelphax striatella (small brown planthopper) assessed as lethality at 1 to 10 ppm.

SMILES strings stand for the structures.

In the case of `CCC1COCC1CN/C(=N/[N+](=O)[O-])NC` (mixture of isomers), the Activity in the experiment with Nephotettix cincticeps [1] and in the experiment with Laodelphax striatellus [2] was 70% each time. On to `CC(=O)OCCCN1CCN/C1=C\[N+](=O)[O-]`, for which the Activity in the experiment with Nephotettix cincticeps [3] and with Laodelphax striatellus [4] was 70% each time. Turning to `CN/C(=C\[N+](=O)[O-])NCC1CCOC1` (stereo not given), the Activity with Nephotettix cincticeps [5] and with Laodelphax striatellus [6] was 70% each time.

For `O=[N+]([O-])/N=C1\NCCN1CCC1CCCCO1` (stereo not given), the Activity with Nephotettix cincticeps [3] and with Laodelphax striatellus [4] was 70% throughout. `CCN/C(=N\[N+](=O)[O-])NCC1CCOC1` (stereo not given): the Activity in the experiment on Laodelphax striatellus [4] and in the experiment on Nephotettix cincticeps [7] was 70% in each case. On to `O=[N+]([O-])/N=C1\NCCN1CCC1CCCO1` (stereo not given), for which the Activity with Nephotettix cincticeps [3] and in the experiment on Laodelphax striatellus [4] was 70% in each case. Turning to `O=[N+]([O-])/N=C1\NCCN1CC1CCOC1` (stereo not given), the Activity with Laodelphax striatellus [8] and in the experiment with Nephotettix cincticeps [9] was 70% in each case. As for `CCN(CC1CCOC1)/C(=C/[N+](=O)[O-])NC` (stereo not given), the Activity with Laodelphax striatellus [8] and in the experiment on Nephotettix cincticeps [9] was 70% throughout. For `O=[N+]([O-])/N=C1\NCCN1Cc1ccoc1`, the Activity in the experiment on Laodelphax striatellus [8] and in the experiment with Nephotettix cincticeps [7] was 70% throughout.

With `CN/C(=N\[N+](=O)[O-])NCC1CCOC1C` (mixture of isomers), the Activity in the experiment with Nephotettix cincticeps [1] and in the experiment on Laodelphax striatellus [2] was 70% throughout.

On to `CC(=O)N(C)/C(=N\[N+](=O)[O-])N(CC1CCOC1)C(C)=O` (stereo not given), for which the Activity with Nephotettix cincticeps [5] and in the experiment with Laodelphax striatellus [6] was 70% throughout.

For the compound `C/C(=N\C#N)N(C)CC1CCOC1` (stereo not given), the Activity with Nephotettix cincticeps [3] and with Laodelphax striatellus [4] was 70% each time. With `CN/C(=N\[N+](=O)[O-])NCC1CC2CCC1O2` (mixture of isomers), the Activity in the experiment on Nephotettix cincticeps [1] and with Laodelphax striatellus [2] was 70% in each case. Consider `O=C(OCCCN1CCN/C1=C\[N+](=O)[O-])c1ccccc1`, for which the Activity in the experiment on Nephotettix cincticeps [3] and in the experiment with Laodelphax striatellus [4] was 70% each time. Turning to `CN/C(=N\[N+](=O)[O-])NCC1CCCOC1` (stereo not given), the Activity in the experiment with Laodelphax striatellus [4] and with Nephotettix cincticeps [7] was 70% in each case. In the case of `N/C(=N\[N+](=O)[O-])NCC1CCOC1` (stereo not given), in the experiment on Nephotettix cincticeps [3], the Activity worked out at 70%.

As to `N#C/N=C1\SCCCN1CC1CCOC1` (stereo not given), the Activity with Laodelphax striatellus [8] and in the experiment on Nephotettix cincticeps [7] was 70% throughout. Take `CC(=O)OCCN1CCN/C1=C\[N+](=O)[O-]`: the Activity in the experiment with Nephotettix cincticeps [1] and with Laodelphax striatellus [4] was 70% each time. With `CN(C(=O)c1ccccc1)/C(=N\[N+](=O)[O-])N(CC1CCOC1)C(=O)c1ccccc1` (stereo not given), the Activity in the experiment on Nephotettix cincticeps [5] and with Laodelphax striatellus [10] was 70% throughout.

With `CN/C(=C\[N+](=O)[O-])CCC1CCOC1` (stereo not given), the Activity in the experiment with Nephotettix cincticeps [1] came to 70%. As to `COCCCN1CCN/C1=C\[N+](=O)[O-]`, the Activity in the experiment on Laodelphax striatellus [4] and in the experiment on Nephotettix cincticeps [7] was 70% each time.

`O=[N+]([O-])/C=C1\NCCN1CCCO`: the Activity in the experiment on Nephotettix cincticeps [3] and in the experiment on Laodelphax striatellus [4] was 70% in each case.

As for `CN/C(=N/CC1CCOC1)N[N+](=O)[O-]` (stereo not given) [DINOTEFURAN], the Activity in the experiment with Nephotettix cincticeps [5] and in the experiment with Laodelphax striatellus [6] was 70% throughout. Consider `COCCN1CCN/C1=C\[N+](=O)[O-]`, for which the Activity in the experiment with Laodelphax striatellus [4] and in the experiment on Nephotettix cincticeps [7] was 70% each time. Take `CN1COCN(CC2CCOC2)/C1=N/[N+](=O)[O-]` (stereo not given): the Activity in the experiment with Nephotettix cincticeps [3] and in the experiment with Laodelphax striatellus [4] was 70% each time. For `CC/C(=C\[N+](=O)[O-])N(C)CC1CCOC1` (stereo not given), the Activity in the experiment with Nephotettix cincticeps [1] came to 70%. Turning to `CN/C(=N\[N+](=O)[O-])NCC1COC(C)C1` (mixture of isomers), the Activity with Laodelphax striatellus [8] and with Nephotettix cincticeps [9] was 70% throughout.

As for `O=[N+]([O-])/N=C1\NCCN1Cc1ccc(Cl)nc1` [IMIDACLOPRID], the Activity in the experiment with Nephotettix cincticeps [5] and in the experiment on Laodelphax striatellus [6] was 70% throughout. Turning to `CN/C(=N\[N+](=O)[O-])N(C)CC1CCOC1` (stereo not given), the Activity with Laodelphax striatellus [10] and in the experiment on Nephotettix cincticeps [9] was 70% each time. Take `CN/C(=N\[N+](=O)[O-])NCC1COCC1C` (mixture of isomers): the Activity in the experiment on Laodelphax striatellus [8] and with Nephotettix cincticeps [9] was 70% in each case. Consider `O=C(OCCN1CCN/C1=C\[N+](=O)[O-])c1ccccc1`, for which the Activity in the experiment on Nephotettix cincticeps [1] and in the experiment with Laodelphax striatellus [4] was 70% each time. On to `CN/C(=N\[N+](=O)[O-])NCC1(C)CCOC1` (stereo not given), for which the Activity in the experiment on Nephotettix cincticeps [1] and in the experiment with Laodelphax striatellus [2] was 70% throughout. As to `CN(C)/C(=N\[N+](=O)[O-])N(C)CC1CCOC1` (stereo not given), the Activity with Laodelphax striatellus [8] and in the experiment with Nephotettix cincticeps [7] was 70% each time. Regarding `O=[N+]([O-])/C=C1\NCCN1CCO`, the Activity in the experiment with Nephotettix cincticeps [1] and in the experiment on Laodelphax striatellus [4] was 70% each time.

For the origin of these results see ChEMBL document CHEMBL3044542 (J Agric Food Chem, 2011).
